From patent publication US11274332B2, “Methods of administering 3,4-diaminopyridine” (SERB SA, priority 2011, dated 2022)

Target: T1, cloned human Kv1.5 potassium channel (Homo sapiens, UniProt P22460)
T1 construct: expressed in transfected cells
Experiment: PatchXpress inhibition of cloned human Kv1.5 in CHO cells (Example 6)
Format: cell-based
Details: hKv1.5, up to 3000 μM
Description: The objective of this study was to examine the in vitro effects and determine the […] of 3,4-DAP phosphate and the metabolite N-(4-aminopyridin-3-yl) acetamide HCl on the following ion channels: cloned human Kv1.1 potassium channel (encoded by the human KCNA1 gene, expressed in HEK293 cells), cloned human Kv1.2 potassium channel (encoded by the human KCNA2 gene, expressed in HEK293 cells), cloned human Kv1.3 potassium channel (encoded by the human KCNA3 gene, expressed in CHO cells), cloned human Kv1.4 potassium channel (encoded by the human KCNA4 gene, expressed in HEK293 cells), cloned human Kv1.5 potassium channel (encoded by the human KCNA5 gene and expressed in CHO cells), responsible for IKur, ultra-rapid delayed rectifier potassium current.
Chemicals used in solution preparation were purchased from Sigma-Aldrich (St. Louis, Mo.), unless otherwise noted, and were of ACS reagent grade purity or higher. Stock solutions of each test article (100 mM, 30 mM and 1.00 mM 3,4-DAP phosphate and 100 mM N-(4-aminopyridin-3-yl)acetamide) were prepared in sterile water and stored refrigerated. […]
In preparation for a recording session, intracellular solution was loaded into the intracellular compartments of the Sealchip16. […] After establishment of a whole-cell configuration, membrane currents were recorded using dual-channel patch clamp amplifiers in the PatchXpress®. […]

T1 sequence (P22460 whole entry): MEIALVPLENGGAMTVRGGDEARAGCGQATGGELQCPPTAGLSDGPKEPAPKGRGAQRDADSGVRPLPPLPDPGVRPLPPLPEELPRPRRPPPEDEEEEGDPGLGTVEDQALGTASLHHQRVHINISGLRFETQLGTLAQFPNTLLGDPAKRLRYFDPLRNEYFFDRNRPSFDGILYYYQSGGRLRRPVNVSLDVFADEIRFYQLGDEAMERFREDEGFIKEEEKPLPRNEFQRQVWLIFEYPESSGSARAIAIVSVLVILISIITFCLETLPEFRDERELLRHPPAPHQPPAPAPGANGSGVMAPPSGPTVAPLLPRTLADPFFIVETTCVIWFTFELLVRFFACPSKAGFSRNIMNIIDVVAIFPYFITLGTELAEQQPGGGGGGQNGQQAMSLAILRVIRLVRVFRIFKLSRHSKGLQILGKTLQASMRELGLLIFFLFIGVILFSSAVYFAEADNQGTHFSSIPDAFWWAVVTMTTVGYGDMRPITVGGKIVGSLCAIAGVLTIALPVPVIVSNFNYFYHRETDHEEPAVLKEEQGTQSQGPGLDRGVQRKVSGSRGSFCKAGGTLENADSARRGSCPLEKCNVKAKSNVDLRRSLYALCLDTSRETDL

activity on K+ channel: inactive
activity on K+ channel (listed as N-acetyl metabolite): not active
Compound: CC(=O)Nc1cnccc1N [3-N-acetyl amifampridine, N-(4-aminopyridin-3-yl)acetamide]
